Like-named read-outs stand apart in the source and are kept apart here.
How the values were obtained:
[1] = system: human SHP-77 SCLC cells as xenograft; assay: Inhibition of tumor growth, SHP-77 xenograft in NCr-nu mice; type: in vivo; settings: for maximum number of tumours versus control, saline-treated mice / mean tumour size versus saline-treated mice: SHP-77 xenografts; for maximum number of tumours versus control, saline-treated mice: FIG. 6, not subject to analysis of significance; for mean tumour size versus saline-treated mice: i.p. treatment up to 38 days, p<0.05; for mean tumor volume: SHP-77 small cell lung cancer xenografts, saline control 260±33 mm^3
Experimental: SHP-77 SCLC cells were grown in culture and injected into each flank of NCr-nu mice (T cell-deficient immunocompromised mice, suitable for growth of this cell line) (2×10^6 cells per injection, in Matrigel™). One day after injection of tumour cells, groups of 5 mice each were injected with 3 mg/kg of COTI-2MO5 or COTI-4MO5 (i.p.), once every 2 days, up to 38 days. Tumour size was estimated at 5, 10, 17, 24, and 38 days, by external caliper measurement. Animals were humanely euthanized after the 38 day tumour measurement.
For comparison, mice (5 mice per group, injected as described above with SHP-77 human tumor cells as described above) and harbouring SHP-77 xenografts were treated with Taxol® (12.5 mg/kg, i.p. in 0.5 ml isotonic saline) every 2 days (according to the report of J. Riondel et al., Anticancer Res. 8:387-90, 1988) or with cisplatin (3.0 mg/kg of DDP i.p., once per week for four weeks, in isotonic saline, according to the report of P. A. Andrews et al., Cancer Commun. 2:93-100, 1990). Tumour size was estimated at 5, 10, 17, 24, and 38 days, by external caliper measurement. Animals were humanely euthanized after the 38 day tumour measurement.

[2] = system: human non-small cell lung cancer cell lines (A549, H226, A460); assay: In vitro inhibition of NSCLC cell lines, summary statements; type: cell-based; settings: across NSCLC cell lines, read-out: IC50 values, inhibits growth and/or kills NSCLC cells
Experimental: (§1) In vitro inhibition of non-small cell lung cancer (NSCLC) cell lines by the compound of Formula 1B (COTI-4) was evaluated. Standard numbers of human tumor cells (established cell lines available from the American Type Tissue culture collection) were plated in plastic tissue culture plates and grown under standard conditions for each cell line, in carbon dioxide/oxygen atmosphere in plastic tissue culture plates, in the presence of COTI-4 (0-1 mM) or Gleevec® ([…]) at 35° C. for 3 days. Control cultures were treated with vehicle minus compound or Gleevec®. Cells were counted after 3 days in culture and at a cell density of no more than 80%.
as §1, with “Formula 1A is” for “Formula 1B (COTI-4) was”, “of compounds of formula 1A” for “of COTI-4”, “cultures are” for “cultures were”, “Cells are” for “Cells were”

[3] = system: A549 adenocarcinoma-derived cells (NSCLC); assay: In vitro tumor cell growth inhibition, cell count after 3 days; type: cell-based; settings: Homo sapiens
Experimental: (§2) In vitro inhibition of non-small cell lung cancer (NSCLC) cell lines by the compound of Formula 1B (COTI-4) was evaluated. […] Cells were counted after 3 days in culture and at a cell density of no more than 80%.
(§3) In vitro inhibition of non-small cell lung cancer (NSCLC) cell lines by the compound of Formula 1A is evaluated. […] Cells are counted after 3 days in culture and at a cell density of no more than 80%.
(§4) Briefly, cells were plated in plastic tissue culture plates and grown under standard conditions for each cell line, in carbon dioxide/oxygen atmosphere in plastic tissue culture plates, in the presence of COTI-4 or COTI-4A compounds at 35° C. for 3 days. Control cultures were treated with vehicle minus compound. Cells were counted after 3 days in culture and at a cell density of no more than 80%. The following cell lines, obtained from the National Cancer Institute, were tested: human SCLC cell lines DMS 153, DMS114, SHP77; human NSCLC cell lines H226, A460, A549; human breast cancer cell lines T47D, MCF7; human colon cancer cell line HT29; and, human Leukemia cell lines K562, HL60.

[4] = system: H226 squamous cell carcinoma-derived cells (NSCLC); assay: as above; type: cell-based; settings: Homo sapiens
Experimental: as §2, §3, §4

[5] = system: A460 large cell carcinoma-derived cells (NSCLC; also printed H460); assay: as above; type: cell-based; settings: Homo sapiens
Experimental: as §2, §3, §4

[6] = system: DMS-114 human SCLC cell line; assay: as above; type: cell-based
Experimental: (§5) Cells were counted after 3 days in culture and at a cell density of no more than 80%.
(§6) In vitro inhibition of small cell lung cancer (SCLC) cell lines by the compound of formula 1A was done with standard human tumor cells (established cell lines available from the American Type Tissue culture collection). […] Cells were counted after 3 days in culture and at a cell density of no more than 80%.
as §4

[7] = system: DMS-153 human SCLC cell line; assay: as above; type: cell-based; settings: for IC50: DMS-153 SCLC cells, 3 days, 35° C.
Experimental: as §5, §6, §4

[8] = system: SHP-77 human SCLC cell line; assay: as above; type: cell-based; settings: for IC50: Homo sapiens
Experimental: as §5, §6, §4

[9] = system: human small cell lung cancer cell lines (DMS-114, DMS-153, SHP-77); assay: In vitro inhibition of SCLC cell lines, summary statements; type: cell-based
Text: as §5, §6

[10] = Escalating dose acute toxicity study in mice; type: in vivo; settings: mice, 4, 8, 16 mg/kg, alternate day IP injections for 28 days
Experimental: An escalating dose acute toxicity study was conducted with COTI-2, COTI-4 (Formula 1B) and COTI-219. Standard lab mice were divided into four treatment groups (control, 4, 8, 16 mg/kg) with four animals per group. It should be noted that the highest dose was approximately 10 times the estimated effective dose. Mice were given alternate day IP injections for 28 days.

[11] = system: HT29 human colon cancer cell line; assay: In vitro IC50 against cancer cell lines; type: cell-based; settings: HT-29, 72 h, HT29 colorectal cancer cells, 3 days, 35° C.
Experimental: (§7) Briefly, cells were plated in plastic tissue culture plates and grown under standard conditions for each cell line, in carbon dioxide/oxygen atmosphere in plastic tissue culture plates, in the presence of COTI-4 or COTI-4A compounds at 35° C. for 3 days. Control cultures were treated with vehicle minus compound. Cells were counted after 3 days in culture and at a cell density of no more than 80%.

[12] = system: HL60 human Leukemia cell line; assay: In vitro IC50 against cancer cell lines; type: cell-based; settings: HL-60, 72 h, HL60 leukemia cells, 3 days, 35° C.
Experimental: as §7

[13] = system: K562 human Leukemia cell line; assay: In vitro IC50 against cancer cell lines; type: cell-based; settings: 72 h, K562 leukemia cells, 3 days, 35° C.
Experimental: as §7

[14] = system: T47D human breast cancer cell line; assay: In vitro IC50 against cancer cell lines; type: cell-based; settings: 72 h, T47D breast cancer cells, 3 days, 35° C.
Experimental: as §7

[15] = system: MCF7 human breast cancer cell line; assay: In vitro IC50 against cancer cell lines; type: cell-based; settings: 72 h, MCF7 breast cancer cells, 3 days, 35° C.
Experimental: as §7

[16] = 72 h, A549 NSCLC cells, 3 days, 35° C., read-out: IC50
[17] = A549, actual in-vitro data, logarithm of IC50, negative, read-out: A549 (Log IC50) (converted)
[18] = NCI-H226, 72 h, H226 NSCLC cells, 3 days, 35° C., read-out: IC50
[19] = NCI-H226, actual in-vitro data, logarithm of IC50, negative, read-out: H226 (Log IC50) (converted)
[20] = NCI-H460, 72 h, A460 NSCLC cells, 3 days, 35° C., read-out: IC50
[21] = NCI-H460, actual in-vitro data, logarithm of IC50, negative, read-out: H460 (Log IC50) (converted)
[22] = Homo sapiens, DMS-114, actual in-vitro data, logarithm of IC50, negative, read-out: DMS114 (Log IC50) (converted)
[23] = SHP77, 72 h, SHP-77 SCLC cells, 3 days, 35° C., read-out: IC50
[24] = SHP77, actual in-vitro data, logarithm of IC50, negative, read-out: SHP-77 (Log IC50) (converted)

SMILES | maximum number of tumours versus control, saline-treated mice [1] | mean tumour size versus saline-treated mice [1] | IC50 [2] | IC50 [3, 16] | IC50 [3, 17] | IC50 [4, 18] | IC50 [4, 19] | IC50 [5, 20] | IC50 [5, 21] | IC50 [6, 22] | IC50 [8, 23] | IC50 [8, 24] | mean tumor volume [1] | also measured
S=C(N/N=C1/CCCc2cccnc21)N1CCN(c2ccccn2)CC1 [COTI-2] | lower than that in control | significantly lower | – | – | – | – | – | – | – | – | – | – | – | –
CN1CCN(C(=S)NN=C2c3ncccc3-c3cccnc32)CC1 [COTI-219] | lower than that in control | – | – | – | – | – | – | – | – | – | – | – | – | –
CN1CCN(C(=S)NN=C(c2ccccc2)c2ccnnc2)CC1 [Formula 1A, 4-methyl-N′-[phenyl(pyridazin-4-yl)methylidene]piperazine-1-carbothiohydrazide] | – | – | ≥ 1500 nM | 1500 nM | 1570 nM | 90000 nM | 63500 nM | 100000 nM | 72400 nM | 650 nM | 10000 nM | 10700 nM | – | times more effective in vitro than Gleevec® ([6]; DMS-114): about 100; IC50 ([6]; DMS-114 SCLC cells, 3 days, 35° C., listed as COTI-4A, read-out: IC50): 650 nM; IC50 ([6]; Homo sapiens, DMS-114, 72 h, DMS-114 SCLC cells, 3 days, 35° C., read-out: IC50): < 1000 nM; times more effective in vitro than Gleevec® ([7]; DMS-153): about 100; effectiveness relative to Gleevec® ([8]; SHP-77): about twice as effective; melting point: 141 to 143 °C; IC50 ([9]; Homo sapiens, across SCLC cell lines, depending on cell line tested, read-out: IC50 values, inhibits growth and/or kills SCLC cells): ≥ 650 nM
CN1CCN(C(=S)NN=C(c2ccccn2)c2ccccn2)CC1 [Formula 1B, N′-(dipyridin-2-ylmethylidene)-4-methylpiperazine-1-carbothiohydrazide] | lower than that in control | significantly lower | ≥ 2500 nM | 6800 nM | 6810 nM | 2500 nM | 2500 nM | 5100 nM | 5110 nM | 30 nM | 173 nM | 173 nM | 6.2 mm^3 | acute toxicity / adverse events [10]: safe and non-toxic at all dosage levels; IC50 ([6]; DMS-114 SCLC cells, 3 days, 35° C., listed as COTI-4 (1B), read-out: IC50): 30 nM; IC50 ([6]; DMS-114 SCLC cells, 3 days, 35° C., listed as COTI-4M05, read-out: IC50): 30 nM; IC50 ([7]; listed as COTI-4 (1B)): 130 nM; IC50 ([7]; listed as COTI-4M05): 130 nM; IC50 [11]: 83 nM; IC50 [12]: 318 nM; IC50 [13]: 95 nM; IC50 [14]: 224 nM; IC50 [15]: 291 nM; times more effective than Gleevec® against these cell lines in vitro ([9]; 3 human small cell lung cancer cell lines): over 100
CC(=O)O[C@H]1C(=O)[C@@]2(C)[C@H]([C@H](OC(=O)c3ccccc3)[C@]3(O)C[C@H](OC(=O)[C@H](O)[C@@H](NC(=O)c4ccccc4)c4ccccc4)C(C)=C1C3(C)C)[C@]1(OC(C)=O)CO[C@@H]1C[C@@H]2O [Taxol®, paclitaxel] | lower than that in control | significantly lower | – | – | – | – | – | – | – | – | – | – | 183 mm^3 | –
N.N.[Cl][Pt][Cl] [cisplatin] | lower than that in control | significantly lower | – | – | – | – | – | – | – | – | – | – | 132±26 mm^3 | –

Source: patent US8466151B2, “Compounds and method for treatment of cancer” (Critical Outcome Technologies, Inc., priority 2007, dated 2013)
